PubChem BioAssay (NCI)
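Grown in 96-well plates, cells were treated for 48 hours with each compound at five concentrations. Insufficient inhibition: endpoint recorded as highest concentration tested. TGI denotes the concentration required for complete inhibition of growth.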

Assays:
Experiment in all cases: NCI anticancer screen, dose series, 48 h
[1] = test system: 786-0 renal
[2] = test system: A498 renal
[3] = test system: A549 NSCLC
[4] = test system: ACHN renal
[5] = test system: BT-549 breast
[6] = test system: CAKI-1 renal
[7] = test system: CCRF-CEM leukemia
[8] = test system: COLO 205 colon
[9] = test system: DU-145 prostate
[10] = test system: EKVX NSCLC
[11] = test system: HCC-2998 colon
[12] = test system: HCT-116 colon
[13] = test system: HCT-15 colon
[14] = test system: HL-60(TB) leukemia
[15] = test system: HOP-62 NSCLC
[16] = test system: HOP-92 NSCLC
[17] = test system: HS 578T breast
[18] = test system: HT29 colon
[19] = test system: IGROV1 ovarian
[20] = test system: K-562 leukemia
[21] = test system: KM12 colon
[22] = test system: LOX IMVI melanoma
[23] = test system: M14 melanoma
[24] = test system: MALME-3M melanoma
[25] = test system: MCF7 breast
[26] = test system: MDA-MB-231 breast
[27] = test system: MDA-MB-435
[28] = test system: MDA-N
[29] = test system: MOLT-4 leukemia
[30] = test system: NCI-H23 lung
[31] = test system: NCI-H460 lung
[32] = test system: NCI-H522 lung
[33] = test system: OVCAR-3 ovarian
[34] = test system: OVCAR-5 ovarian
[35] = test system: OVCAR-8 ovarian
[36] = test system: PC-3 prostate
[37] = test system: RPMI-8226 leukemia
[38] = test system: RXF 393 renal
[39] = test system: SF-268 CNS
[40] = test system: SF-295 CNS
[41] = test system: SF-539 CNS
[42] = test system: SK-MEL-2 melanoma
[43] = test system: SK-MEL-28 melanoma
[44] = test system: SK-MEL-5 melanoma
[45] = test system: SK-OV-3 ovarian
[46] = test system: SN12C renal
[47] = test system: SNB-19 CNS
[48] = test system: SNB-75 CNS
[49] = test system: SR leukemia
[50] = test system: SW-620 colon
[51] = test system: T-47D breast
[52] = test system: TK-10 renal
[53] = test system: U251 CNS
[54] = test system: UACC-257 melanoma
[55] = test system: UACC-62 melanoma
[56] = test system: UO-31 renal
[57] = test system: NCI-H226 lung
[58] = test system: NCI/ADR-RES ovarian
[59] = test system: OVCAR-4 ovarian

COc1cc2c(cc1C)NC(=O)/C2=C/c1c(Cl)[nH]c2ccccc12
TGI [1]: 20 µM | TGI [2]: 16.6 µM | TGI [3]: > 100 µM | TGI [4]: 22.4 µM | TGI [5]: 9.35 µM | TGI [6]: 24.7 µM | TGI [7]: 17.2 µM | TGI [8]: 13.1 µM | TGI [9]: 27 µM | TGI [10]: 20.9 µM | TGI [11]: 15.4 µM | TGI [12]: 17 µM | TGI [13]: 14.6 µM | TGI [14]: 7.37 µM | TGI [15]: 14.6 µM | TGI [16]: 25 µM | TGI [17]: 28.7 µM | TGI [18]: 14.4 µM | TGI [19]: 16.8 µM | TGI [20]: > 100 µM | TGI [21]: 16.9 µM | TGI [22]: 17.9 µM | TGI [23]: 13.3 µM | TGI [24]: 15.3 µM | TGI [25]: 16.1 µM | TGI [26]: 16.9 µM | TGI [27]: 4.13 µM | TGI [28]: 3.82 µM | TGI [29]: 31.3 µM | TGI [30]: 23.7 µM | TGI [31]: 17.1 µM | TGI [32]: 20.5 µM | TGI [33]: 6.34 µM | TGI [34]: 24.4 µM | TGI [35]: 26.4 µM | TGI [36]: 18.3 µM | TGI [37]: > 100 µM | TGI [38]: 24.7 µM | TGI [39]: 17.7 µM | TGI [40]: 5.52 µM | TGI [41]: 4.15 µM | TGI [42]: 8.56 µM | TGI [43]: 20.8 µM | TGI [44]: 11.4 µM | TGI [45]: 7.71 µM | TGI [46]: 16.7 µM | TGI [47]: 19.2 µM | TGI [48]: 21.7 µM | TGI [49]: 23.1 µM | TGI [50]: 19.6 µM | TGI [51]: 34.1 µM | TGI [52]: 22.1 µM | TGI [53]: 16.9 µM | TGI [54]: 22.8 µM | TGI [55]: 14.4 µM | TGI [56]: 25.8 µM

Cc1ccc([N+](=O)[O-])cc1S(=O)(=O)Nc1ccc(C2=NN(S(=O)(=O)c3cc([N+](=O)[O-])ccc3C)C(c3ccccc3O)C2)cc1 (configuration not stated)
TGI [1]: > 100 µM | TGI [2]: 83.9 µM | TGI [3]: > 100 µM | TGI [4]: > 100 µM | TGI [5]: > 100 µM | TGI [6]: > 100 µM | TGI [7]: > 100 µM | TGI [8]: > 100 µM | TGI [9]: > 100 µM | TGI [10]: > 100 µM | TGI [11]: > 100 µM | TGI [12]: > 100 µM | TGI [13]: > 100 µM | TGI [14]: > 100 µM | TGI [15]: > 100 µM | TGI [16]: > 100 µM | TGI [18]: > 100 µM | TGI [19]: > 100 µM | TGI [20]: > 100 µM | TGI [21]: > 100 µM | TGI [22]: > 100 µM | TGI [23]: > 100 µM | TGI [24]: > 100 µM | TGI [25]: > 100 µM | TGI [26]: > 100 µM | TGI [27]: > 100 µM | TGI [28]: > 100 µM | TGI [29]: > 100 µM | TGI [57]: > 100 µM | TGI [30]: > 100 µM | TGI [31]: > 100 µM | TGI [32]: > 100 µM | TGI [58]: > 100 µM | TGI [33]: > 100 µM | TGI [59]: > 100 µM | TGI [34]: > 100 µM | TGI [35]: > 100 µM | TGI [36]: > 100 µM | TGI [37]: > 100 µM | TGI [38]: > 100 µM | TGI [39]: > 100 µM | TGI [40]: > 100 µM | TGI [42]: > 100 µM | TGI [43]: > 100 µM | TGI [44]: > 100 µM | TGI [45]: > 100 µM | TGI [46]: > 100 µM | TGI [47]: > 100 µM | TGI [48]: > 100 µM | TGI [49]: > 100 µM | TGI [50]: > 100 µM | TGI [51]: > 100 µM | TGI [52]: > 100 µM | TGI [53]: > 100 µM | TGI [54]: > 100 µM | TGI [55]: > 100 µM | TGI [56]: > 100 µM

CN1N=C(c2ccncc2)OC1c1ccc(C(F)(F)F)cc1 (configuration not stated)
TGI [1]: > 100 µM | TGI [2]: > 100 µM | TGI [3]: > 100 µM | TGI [4]: > 100 µM | TGI [7]: > 100 µM | TGI [8]: > 100 µM | TGI [9]: > 100 µM | TGI [10]: > 100 µM | TGI [11]: > 100 µM | TGI [12]: > 100 µM | TGI [13]: > 100 µM | TGI [14]: > 100 µM | TGI [15]: > 100 µM | TGI [17]: > 100 µM | TGI [18]: > 100 µM | TGI [19]: > 100 µM | TGI [20]: > 100 µM | TGI [21]: > 100 µM | TGI [22]: > 100 µM | TGI [23]: > 100 µM | TGI [25]: > 100 µM | TGI [26]: > 100 µM | TGI [27]: > 100 µM | TGI [28]: > 100 µM | TGI [29]: > 100 µM | TGI [57]: > 100 µM | TGI [30]: > 100 µM | TGI [31]: > 100 µM | TGI [32]: > 100 µM | TGI [58]: > 100 µM | TGI [33]: > 100 µM | TGI [59]: > 100 µM | TGI [34]: > 100 µM | TGI [35]: > 100 µM | TGI [36]: > 100 µM | TGI [37]: > 100 µM | TGI [38]: > 100 µM | TGI [39]: > 100 µM | TGI [40]: > 100 µM | TGI [41]: > 100 µM | TGI [42]: > 100 µM | TGI [43]: > 100 µM | TGI [44]: > 100 µM | TGI [45]: > 100 µM | TGI [46]: > 100 µM | TGI [47]: > 100 µM | TGI [48]: 87.8 µM | TGI [50]: > 100 µM | TGI [51]: > 100 µM | TGI [52]: > 100 µM | TGI [53]: > 100 µM | TGI [54]: > 100 µM | TGI [55]: > 100 µM | TGI [56]: > 100 µM
